What was measured:
[1] = Liver function in mice (plasma GOT, GPT, erythropoietin); type: in vivo, mouse; settings: oral, 7 consecutive days
Procedure: Compound #4 (10 mg/100 μl of DMSO) (10 μl) and compound #4 (20 mg/100 μl of DMSO) (15 μl) were mixed with 190 μl and 185 μl, respectively, of corn oil to prepare low-concentration (5 μg/ml) compound #4 and high-concentration (15 μg/ml) compound #4 mixed solutions (200 μl each). Each mixed solution (200 μl) was orally administered to each mouse (C57BL/6N 8 W, male, 21-25 g) between 15:00 to 18:00 every day using a sonde. This administration was carried out for 7 consecutive days (n=4). Mice orally given DMSO were used as controls (n=4).
24 hours after the final administration, each mouse was cervically dislocated, and 500 μl of blood was collected from the heart. Then, an anticoagulant (10 μl of heparin) was added thereto, and the resulting blood was centrifuged (12000 rpm×20 min, 4° C.) to isolate plasma. The plasma concentrations of indexes for liver functions (GOT [glutamic oxaloacetic transaminase] and GPT [glutamic pyruvic transaminase]) were measured using Transaminase CII-Test Wako (manufactured by Wako Pure Chemical Industries, Ltd.) to examine the effect of improving liver functions. Also, the plasma concentration ([…]) of erythropoietin was measured using a kit (Quantikine Mouse/Rat Epo Immunoassay, manufactured by R&D Systems, Inc.).

[2] = Erythrocyte production in mice (Hct value and hemoglobin, i-STAT); type: in vivo, mouse; settings: 1 mg/200 μl of CMC oral, 7 consecutive days, n=3, mean±standard deviation
Procedure: Compound #4 (1 mg) was mixed with 200 μl of CMC (carboxymethylcellulose). This compound #4 mixed solution (1 mg/200 μl of CMC) was orally administered to each mouse (C57BL/6N 8 W, male, 21-25 g) between 15:00 to 18:00 every day using a sonde. This administration was carried out for 7 consecutive days (n=3). Mice orally given CMC were used as controls (n=3).
24 hours after the final administration, each mouse was cervically dislocated, and 500 μl of blood was collected from the heart. Then, an anticoagulant (10 μl of heparin) was added thereto, and the Hct value and the hemoglobin concentration were measured using i-STAT (manufactured by Fuso Pharmaceutical Industries, Ltd.).

[3] = system: human kidney-derived cell line HK-2; test: Renal protective effect: cisplatin cytotoxicity to HK-2 cells; type: cell-based; settings: for HK-2 cell death by cisplatin: cisplatin 30 μM
Procedure: The HK-2 cells were seeded at 5×10^3 cells/well to a 96-well cell culture plate and then cultured overnight. Cisplatin and compound #4 were mixed at 30 μM and each concentration (30, 10, 3, 1, 0.3, 0.1, 0.03, 0.01, and 0.003 μM), respectively, into DMEM/F12 common medium. After further culture for 24 hours, conversion to formazan dye by mitochondrial dehydrogenase in live cells was detected by the measurement of absorbance at OD […] using a kit (Cell counting kit-8, manufactured by Dojindo Laboratories) to analyze the ratio of live cells. HK-2 cells cultured in the absence of cisplatin (“Cisplatin-” of FIG. 14) and HK-2 cells cultured in the presence of cisplatin (30 μM) and in the absence of the compound #4 (“Cisplatin+” of FIG. 14) were used as controls.
The cells were cultured in advance for 1 hour with the compound #4 of the present invention having a concentration of 3 μM and then analyzed according to the method described in Example 12.

[4] = system: ISN-1e cells; test: ATP production in islet of Langerhans-derived ISN-1e cells (insulin secretion); type: cell-based, rat; settings: compound 0.03 to 10 μM, 3 hours
Procedure: The ISN-1e cells were seeded at 2×10^5 cells/well to a 96-well cell culture plate and then cultured overnight. Compound #4 was mixed at each concentration (10, 3, 1, 0.3, 0.1, and 0.03 μM) into RPMI11640 common medium 2. After further culture for 3 hours, the concentration of ATP produced in the medium was measured using ATP Assay Reagent “of Cells” (manufactured by Toyo B-Net Co., Ltd.) and GloMa 96 Microplate Luminometer (manufactured by Promega K.K.). ISN-1e cells cultured in the absence of the compound (DMSO added [1%]) (“control” of FIG. 16) and ISN-1e cells cultured in the presence of an HIF activator (FG-4592 [10, 3, 1, 0.3, and 0.1 μM]) were used as controls.

[5] = Plasma concentration in mice after tail vein administration (LC/MS/MS); type: in vivo, mouse
Procedure: Compound #4 was administered alone to the tail veins of 3 mice (C57BL/6N 8 W, male, 21-25 g). 30 minutes, 1 hour, and 6 hours after the administration, each mouse was cervically dislocated, and 500 μl of blood was collected from the heart. Then, an anticoagulant (10 μl of heparin) was added thereto, and the resulting blood was centrifuged (12000 rpm×20 min, 4° C.) to isolate plasma. DMSO (57 μl) was administered alone to the tail veins of mice, which were in turn used as controls.
The plasma concentration of the compound #4 was quantified using LC/MS/MS constituted by TSQ Quantum Ultra (manufactured by Thermo Fisher Scientific Inc.) and NANOSPACE SI-2 (manufactured by Shiseido Co., Ltd.). Conditions for the selected reaction monitoring (SRM) method of the compound #4 or 2-methyl-5-([2-naphthylamino]carbonyl)-3-thienyl)acetic acid used as an internal standard (hereinafter, referred to as an “internal standard compound”) are “m/z 311.1>116.0 (collision energy, CE=24)” and “m/z 324.1>280.0 (CE=14)”. “Xbridge C18 (150 mm×2.1 mm i.d., 3.5 μm particle size)” was selected as an analytical column. […] The compound #4 and the internal standard compound were detected 8.51 and 9.00 minutes, respectively (upper column of FIG. 10). […] The sample (1 μl) was introduced through a filter to LC/MS/MS to quantify the plasma concentration (μg/ml) of the compound #4 (lower column of FIG. 10).

O=C(CC(C(=O)O)c1c[nH]c2ccccc12)c1ccc(F)cc1 (centres unmarked) [compound #4, 4-(4-Fluorophenyl)-2-(1H-indol-3-yl)-4-oxo-butanoic acid]
erythropoietin concentration in the mouse plasma ([1]; low concentration (5 μg/ml) and high concentration (15 μg/ml)): elevate the erythropoietin concentration
GOT concentration in the plasma ([1]; mice): lower
GPT concentration in the plasma ([1]; mice): lower
Hct value [2]: 47.7±0.816 % PCV
hemoglobin concentration in the mouse blood [2]: 16.2 ± 0.286 g/dL
HK-2 cell death by cisplatin ([3]; compound at a concentration around 30 μM): efficiently suppress cell death
HK-2 cell death by cisplatin ([3]; compound at least at a concentration of 1 to 300 μM, 24 hours): significantly suppressed
HK-2 cell death by cisplatin with preincubation compared with no preincubation ([3]; preincubation 1 hour with 3 μM compound): further suppressed
ATP concentration in the ISN-1e cells relative to the control [4]: two or more times relative to the control
time after administration up to which the compound is detected in plasma [5]: at least 6 hours
detection in plasma ([5]; 30 minutes after the administration): detected at a high level

From US10004718B2, “Erythropoietin expression promoter” (TOHOKU UNIVERSITY, priority 2012, dated 2018)
